Consider 81 compounds from the METLIN SMRT retention time set (Domingo-Almenara et al. 2019).

The series in a line: gradient 5% acetonitrile 3 min, to 50% in 2 min, to 85% in 15 min, held 3 min, 100 µL/min. The note with it: column: Zorbax Extend-C18 2.1 x 50 mm; eluents: water / acetonitrile, 0.1% formic acid. A digest of the protocol:
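Values are retention times taken from adduct peaks that software picked and an analyst inspected. The pure standards were run as mixtures of ~100 molecules on HPLC linked to a quadrupole time-of-flight mass spectrometer, in positive and negative ionization mode. A Zorbax Extend-C18 column (2.1 × 50 mm, 1.8 μm) was used at 100 μL/min with water and acetonitrile, each including 0.1% formic acid.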
Regarding `Cn1c(=O)c2cc(C(=O)Nc3ccc(F)cc3Cl)sc2n(C)c1=O`, the RP-LC retention time came out at 797 s.
Regarding `Cc1ccc(CNC(=O)C2CCCN(C(=O)c3cc(-c4cccnc4)n[nH]3)C2)o1` (stereo unspecified), the RP-LC retention time is 611 s.
For `CC(=O)c1cccc(NC(=O)c2ccc(Cl)s2)c1`, the RP-LC retention time worked out at 832 s.
For the compound `Cc1cccc(NC(=O)C2CCCN(c3ncnc4c3nc3n4CCCCC3)C2)n1` (stereo unspecified), the RP-LC retention time worked out at 730 s.
`CC(C)(C)NC(=O)c1ccc(-n2cc(CNC(=O)C3CCC3)cn2)cc1`: the RP-LC retention time worked out at 710 s.
Consider `O=C(Nc1cccc(Cl)c1)N1CCC(n2c(C(F)(F)F)nc3cccnc32)CC1`, for which the RP-LC retention time turned out to be 961 s.
Compound `Cc1ccn2cc(CC(=O)Nc3ccccc3)nc2c1` gave an RP-LC retention time of 588 s.
With `O=C(c1cccc2[nH]ccc12)N1CCC2(CC1)N=C(c1cccc(Br)c1)NO2`, the RP-LC retention time was determined as 849 s.
On to `O=C(NCC1(CO)CC1)c1cc(-c2ccccc2)on1`, for which the RP-LC retention time was determined as 703 s.
As for `CCc1nc(N)n(CC(=O)NCc2ccc(Cl)cc2)c(=O)c1C`, the figure is 645 s.
`O=C(NCCCN1CCCCC1)c1ccc2ccnc(N3CCN(c4ccc(Cl)cc4)CC3)c2c1` showed an RP-LC retention time of 645 s.
Consider `CNC(=O)c1sc(-c2ccccc2)nc1C`, for which the RP-LC retention time was 726 s.
In turn, `O=C(NCc1ccc2c(c1)OCO2)C1CCCN(c2nnc3c(Cl)cccn23)C1` (stereo unspecified) displayed an RP-LC retention time of 701 s.
The compound `Cc1cc(C)c2c(N3CCSCC3)nc(C(=O)NCc3ccccn3)nc2n1` had an RP-LC retention time of 567 s.
`CCc1cccc(C)c1Nc1c(-c2ccc(OC)cc2)nc2nc(C)cc(C)n12` showed an RP-LC retention time of 781 s.
For the compound `Cc1ccc(N(C)S(=O)(=O)c2ccc(-c3c(C)noc3C)cc2)cc1`, the RP-LC retention time was 1060 s.
With `O=C(NC1CCCCC1)C1CCN(S(=O)(=O)c2cc(C(=O)N3CCCCCC3)cs2)CC1`, the RP-LC retention time was found to be 902 s.
For `Cc1cc(C)c(S(=O)(=O)N2CCc3nn(CC(C)C)c(=O)n3CC2)c(C)c1`, the RP-LC retention time came to 664 s.
Regarding `Cc1cc(=O)n(CC(=O)Nc2ccc3c(c2)OCO3)c(-c2ccccc2)n1`, the RP-LC retention time was 941 s.
As for `COCCNC(=O)Nc1cccn2c(C)nnc12`, the figure is 556 s.
For `COc1ccc(-c2nc3cnccn3c2Nc2ccc(C(=O)NCC3CCCO3)cc2)cc1OC` (stereo unspecified), the RP-LC retention time came out at 645 s.
For the compound `Cc1ccc(NC(=O)N2CCN(C3=CC4=NCC(C)N4C=N3)CC2)c(C)c1` (stereo unspecified), the RP-LC retention time was 623 s.
In the case of `CN1CCCC1c1nc(C2CN(C(=O)c3ccsc3)C2)no1` (stereo unspecified), the RP-LC retention time came out at 567 s.
Compound `O=C(NCc1cccs1)C1CCCN(c2nc3ccccc3n(Cc3ccccc3)c2=O)C1` (stereo unspecified) yielded an RP-LC retention time of 1100 s.
`COCc1ncc(C)n1CC1CN(C(=O)C2(c3ccc(OC)cc3)CC2)C1` yielded an RP-LC retention time of 625 s.
Consider `COCCc1noc(COC2CCN(C(=O)C3CCCO3)CC2)n1` (stereo unspecified), for which the RP-LC retention time was found to be 618 s.
`Cc1ccc(CNC(=O)C(C)C2CCOCC2)o1` (stereo unspecified): the RP-LC retention time stood at 677 s.
The compound `CC1CCN(c2cc(-n3cnc(C(=O)N4CCN(c5ncccn5)CC4)c3)ncn2)CC1` showed an RP-LC retention time of 880 s.
In the case of `COc1ccc(-c2noc(-c3ccc(N4CCN(Cc5ccc6c(c5)OCO6)CC4)nc3)n2)cc1`, the RP-LC retention time amounted to 785 s.
Take `COC(=O)c1ccc(-c2nc3cnccn3c2Nc2ccccc2OC)cc1`: the RP-LC retention time came out at 893 s.
`CCCNC(=O)C1CCN(c2ccc(SCC(=O)NCc3ccccc3Cl)nn2)CC1`: the RP-LC retention time was 644 s.
The same measure for `O=C(c1ccc(SCCN2CCCCC2)nc1)N1CCN(c2ncccn2)CC1`: 605 s.
In turn, `CCc1ccc(NC(=O)CN2CCN(Cc3ccc(F)cc3)C(=O)C2=O)cc1` had an RP-LC retention time of 818 s.
As for `CCn1c(=O)c(N2CCN(C(=O)Nc3ccc(Br)c(C)c3)CC2)nc2cccnc21`, the figure is 1060 s; as for `CCCC(=O)Nc1cc2c(cc1SC(C)C)n(C)c(=O)n2C`, 852 s; as for `COCCNc1c(-c2ccc(C)cc2)nc2sc(C(=O)NC3CC3)c(C)n12`, 766 s.
Take `Cc1nnsc1C(=O)Nc1nnc(SCC(=O)NCc2ccco2)s1`: the RP-LC retention time turned out to be 692 s.
The same measure for `CCCn1c(=O)sc2cc(S(=O)(=O)N3CCC(C(=O)NCc4ccccn4)CC3)ccc21`: 662 s; for `O=C(Nc1cc(F)ccc1F)c1cc2sccc2n1Cc1ccc(Cl)cc1`: 1280 s; for `Cn1cc(C(CNS(=O)(=O)c2cnc[nH]2)c2cccnc2)c2ccccc21` (stereo unspecified): 590 s.
On to `CCOc1ccccc1NC(=O)N1CCCC1c1cc(C)on1` (stereo unspecified), for which the RP-LC retention time was determined as 870 s.
The same measure for `Cc1nn(C)cc1S(=O)(=O)Nc1nc2ccc(S(C)(=O)=O)cc2s1`: 581 s.
Compound `COc1ccc(NC(=O)CCc2nc(-c3ccc(N4CCCC4)cc3)no2)cc1OC` returned an RP-LC retention time of 936 s.
As for `CCc1nnc(NC(=O)CN2C(=O)C3CCCCN3c3ccc(S(=O)(=O)N(C)C)cc32)s1` (stereo unspecified), the figure is 800 s; as for `CC(C)n1c(N2CCCN(C(=O)c3cccs3)CC2)cc(=O)n(C(C)C)c1=O`, 794 s.
The same measure for `O=C(c1ccc2cc[nH]c2c1)N1CCC(c2nc(-c3ccccc3)no2)C1` (stereo unspecified): 866 s.
The same measure for `COc1ccc(S(=O)(=O)Nc2ccc3c(c2)CCC(=O)N3CC(C)C)cc1`: 832 s; for `O=C1CCN(C(=O)C2(c3ccccc3)CC2)CCCCCCN1`: 721 s; for `Cc1nn(C)cc1S(=O)(=O)N1CCN(C(=O)c2ccco2)CC1`: 626 s.
In turn, `O=C(CNC(=O)c1cccs1)Nc1nc2ccccc2[nH]1` came in with an RP-LC retention time of 599 s.
Compound `CCOC(=O)C1CCN(C(=O)c2cc(-c3ccc(C)c(C)c3)[nH]c2C)CC1` registered an RP-LC retention time of 973 s.
`Cn1cccc1CN(C(=O)c1ccc(Cl)c(Cl)c1)C1CC1` returned an RP-LC retention time of 994 s.
Turning to `CN(C)CCNC(=O)c1cc(-c2ccccc2)nc2ccccc12`, the RP-LC retention time was 620 s.
`CNC(=O)CSc1nnc(N2CCN(C(=O)c3cc(-c4ccccc4)on3)CC2)s1`: the RP-LC retention time was found to be 674 s.
`O=C(C1CCC1)N1CC(N(Cc2ccncc2)CC2CC2)C1`: the RP-LC retention time was 590 s.
The same measure for `CCc1cccc(Nc2nc(C)cc(=O)n2CC(=O)Nc2ccc3c(c2)OCCO3)c1`: 1040 s; for `O=C(Nc1ccc(Oc2ccccc2)cc1)c1cccc([N+](=O)[O-])c1C(=O)O`: 788 s; for `O=C(NC1CC1)C1CCN(c2cnn(Cc3ccccc3)c(=O)c2)CC1`: 681 s.
Compound `Cc1cc(-c2c(C)sc(C)c2S(=O)(=O)Nc2cccc(Br)c2)n[nH]1` returned an RP-LC retention time of 1100 s.
With `Cc1ccc(CNC(=O)CCc2ccc3nc(-c4ccccc4)[nH]c3c2)o1`, the RP-LC retention time came to 625 s.
For the compound `CCOC(=O)Cc1csc(NC(=O)CNC(=O)c2c[nH]c3ccccc23)n1`, the RP-LC retention time stood at 670 s.
The same measure for `COc1ccc(-c2cc(=O)n(CCNC(=O)c3c(F)cccc3F)cn2)cc1`: 678 s; for `Cn1cnc(S(=O)(=O)N2CC(Oc3ccc(-c4noc(C5CC5)n4)cc3)C2)c1`: 794 s.
`CC(C)(C)C(=O)N1CCC2(CC1)CN(Cc1ccccc1)CC2CO` (stereo unspecified): the RP-LC retention time worked out at 607 s.
For `COc1cc(NC(=O)N2CCc3cn(C)c4cccc(c34)C2)cc(OC)c1OC`, the RP-LC retention time was determined as 801 s.
In turn, `Cc1ccc(NC(=O)CC(=O)Nc2ccc3nc4n(c(=O)c3c2)CCCCC4)cc1F` came in with an RP-LC retention time of 750 s.
`CCN1c2ccc(F)cc2C(=O)NC12CCN(C(=O)Cc1ccc(C)cc1)CC2` had an RP-LC retention time of 853 s.
As for `CCn1cnnc1C1CCN(C(=O)C2(c3ccc(OC)cc3)CC2)CC1`, the RP-LC retention time worked out at 599 s.
`COc1ccc(OC)c(-c2cn3ccn(-c4cccc(F)c4)c(=O)c3n2)c1` displayed an RP-LC retention time of 835 s.
In the case of `CCc1nc(OCC(=O)Nc2ccc(Br)cc2)c2ccccc2n1`, the RP-LC retention time was determined as 874 s.
As to `CCOc1ccccc1C(=O)Nc1nnc(SC(C)c2ccccc2)s1` (stereo unspecified), the RP-LC retention time turned out to be 1140 s.
In turn, `COc1ccc(CCNC(=O)c2c(N3CCCC3=O)c3cc(OC)ccc3n2C)c(OC)c1` showed an RP-LC retention time of 877 s.
As to `CN(C)c1ccc(C(=O)NC2CCN(c3cc(-c4cccs4)[nH]n3)C2)cc1` (stereo unspecified), the RP-LC retention time is 721 s.
As for `CCCc1noc(-c2cccnc2N2CCCN(Cc3ccccc3)CC2)n1`, the RP-LC retention time was determined as 690 s.
`COc1ccc(-c2nc3n(n2)C2(CCCCC2)[C@@H]2CCCC[C@@H]2N3C(C)=O)cc1`: the RP-LC retention time came to 1330 s.
In the case of `Cc1ccc(NC(=O)Cn2c(=O)n(-c3cccc(C)c3)c(=O)c3c2cc(C)n3C)cc1`, the RP-LC retention time was 899 s.
In turn, `CCN1C(=O)c2cccnc2Sc2cc(NC(=O)c3cccc(F)c3)ccc21` showed an RP-LC retention time of 844 s.
The same measure for `COc1ccc(NC(=O)Nc2cc(F)c3nc(N4CCOCC4)ccc3c2)cc1OC`: 938 s.
The compound `COCCOCc1nc(C2CCCCN2C(=O)NC(C)C)no1` (stereo unspecified) had an RP-LC retention time of 667 s.
In turn, `COc1cccc(-n2cc(C(=O)O)c3c2C(c2ccc(OC)c(OC)c2)CC(=O)N3)c1` (stereo unspecified) returned an RP-LC retention time of 717 s.
With `CCCCOc1ccc(-c2csc(Nc3ccccc3)n2)cc1`, the RP-LC retention time was determined as 1400 s.
